These results are taken from patent publication US7022711B2, “2-(4-Pyridyl)amino-6-dialkoxyphenyl-pyrido[2,3-d]pyrimidin-7-ones” (Warner-Lambert Company, priority 2000, dated 2006).

Each structure is given as a SMILES string.

As usually defined, the Papp A→B is the apparent permeability from the apical to the basolateral side of a cell layer. Low readings indicate poor permeation, high ones ready permeation. As usually defined, the IC50 is the midpoint of a concentration-inhibition curve. A word on the Ki: it is a dissociation constant, usually derived from enzyme kinetics or from competition with a known ligand. A high value points to weaker binding. The melting point is the temperature, or range, at which the solid turns liquid. By half-life is commonly meant the time needed for the level to fall by half in the phase considered.

Data set [1] in a line: Caco-2 cell transport (permeability) study. To be noted: human. (Passage across Caco-2 layers is used to estimate intestinal permeability.)
Procedure: (§4) Cell transport studies were conducted with Caco-2 cells grown on Snapwells™ between 22 and 28 days postseeding. Typically, 10 mM MES buffer (pH 6.5) with 5 mM KCl, 135 mM NaCl, and 1.8 mM CaCl2 was used for the apical side and 10 mM MOPS (pH 7.4) with 5 M KCl, 132 mM NaCl, and 1.8 mM CaCl2 with 5 mM D-glucose was used for the basolateral side. On the day of the experiment, the growth media was aspirated, and the cell monolayers were pre-equilibrated with appropriate buffers at 37° C., and TEER measurements were performed to confirm the integrity of the monolayers. Transepithelial flux measurements were made by mounting the cell monolayers in a side-by-side diffusion chamber system (Precision Instrument Design, Tahoe City, Calif.). Temperature was maintained at 37° C. with a circulating water jacket. The solutions were mixed with gas-lift circulation with 95% oxygen/5% carbon dioxide. […] Donor and receiver samples were collected at selected time intervals for up to 3 hours. […] Test compounds were analyzed using LC-MS/MS methods. Apparent permeability coefficients were calculated using the following equation: Papp=(V·dC/dt)/(A·C0) where V=volume of the receiver solution in mL; A=surface area of the monolayer in cm^2; C0=initial donor concentration in mM; and dC/dt=change of the drug concentration in the receiver chamber over time.
The target of another data set is T1, FGFR-1 (Homo sapiens, UniProt P11362).
T1 construct: The kinase domains from FGFR-1, VEGFR-2, Lck, and PDGF were purified from baculoviral vectors expression systems; made in house
T1 sequence (P11362 478-767 limits assumed, species assumed): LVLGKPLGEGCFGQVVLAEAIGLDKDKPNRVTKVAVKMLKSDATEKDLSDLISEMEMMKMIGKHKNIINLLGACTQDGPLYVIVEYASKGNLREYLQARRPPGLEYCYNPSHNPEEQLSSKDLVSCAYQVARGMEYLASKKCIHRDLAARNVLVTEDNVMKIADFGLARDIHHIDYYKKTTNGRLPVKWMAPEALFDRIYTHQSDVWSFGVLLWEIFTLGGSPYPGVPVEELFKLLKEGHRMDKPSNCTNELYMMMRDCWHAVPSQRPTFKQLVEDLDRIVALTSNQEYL
Nature of the data set: Kinase inhibition assay (DELFIA), FGFr. The following applies: 40 μM ATP, kinase domain 20 nM. Format: biochemical. The method, then:
(§1) The inhibition activity of the compounds in Examples 8, 9, 10, 11, and 12 and Reference Compounds A and B were evaluated using the Dissociated Enhanced Lanthanide Fluoroimmuno Assay (DELFIA) (Frank Loganzo and Carolyn Hardy. A sensitive, time-resolved fluorometric assay for the detection of inhibitors of phosphotyrosine kinases. American Biotechnology Laboratory, December 1998). DELFIA plates (EG&G Wallac, Gaithersburg, Md.) were coated overnight with Poly Glu Tyr (4:1) (Sigma, St. Louis, Mo.) at room temperature, washed (DELFIA wash reagent, EG&G Wallac), and spotted with 1 μL inhibitor dilution or DMSO carrier control per well. In some cases, kinase was autophosphorylated prior to analysis by incubating 45 minutes at 4° C. in the presence of 4 mM ATP and 25 mM MgCl2. A typical 100 μL kinase assay reaction contained 20 mM Tris (pH 7.5), 20 mM MgCl2, 50 mM NaCl, 5 mM DTT, and protease inhibitors (Mini EDTA-free protease inhibitor cocktail tablets, Boehringer Mannheim, Indianapolis, Ind.), 40 μM ATP, and an appropriate concentration of inhibitor. The reaction was allowed to continue for 30 minutes at room temperature. Plates were washed, blocked 30 minutes at room temperature (0.5% bovine serum albumin in DELFIA Assay Buffer, EG&G Wallac), and washed. One hundred microliter europium-conjugated antiphosphotyrosine antibody in DELFIA assay buffer was added to each well. Plates were incubated for 1 hour and decanted. One hundred microliter DELFIA enhancement solution (EG&G Wallac) was added and time-resolved fluorescence of the reactions determined using a VICTOR2 1420 multilable counter (EG&G Wallac). Compounds were tested from 10 through 0.0001 μM. c-Src was (Upstate Biotechnology, Lake Placid, N.Y.) was used at 3 units per reaction. The kinase domains from FGFR-1, VEGFR-2, Lck, and PDGF were purified from baculoviral vectors expression systems and were used in the assays at 20 nM.

A further data set deals with T2, VEGFR-2 (Homo sapiens, UniProt P35968).
T2 construct: The kinase domains from FGFR-1, VEGFR-2, Lck, and PDGF were purified from baculoviral vectors expression systems; made in house
T2 sequence (P35968 834-1162 limits assumed, species assumed): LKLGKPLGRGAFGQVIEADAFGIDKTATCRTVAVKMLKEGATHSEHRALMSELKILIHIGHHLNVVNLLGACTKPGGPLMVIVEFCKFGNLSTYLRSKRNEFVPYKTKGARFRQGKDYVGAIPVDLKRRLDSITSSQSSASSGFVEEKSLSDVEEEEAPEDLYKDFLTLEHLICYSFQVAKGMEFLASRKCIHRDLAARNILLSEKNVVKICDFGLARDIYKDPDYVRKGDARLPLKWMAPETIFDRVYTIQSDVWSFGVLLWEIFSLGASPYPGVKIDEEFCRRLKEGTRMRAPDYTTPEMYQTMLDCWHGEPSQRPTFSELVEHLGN
Nature of the data set: Kinase inhibition assay (DELFIA), VEGF-2. In kind it is biochemical. To be noted: 40 μM ATP, kinase domain 20 nM. The method, then: as §1, with “DELFIA” for “The inhibition activity of the compounds in Examples 8, 9, 10, 11, and 12 and Reference Compounds A and B were evaluated using the Dissociated Enhanced Lanthanide Fluoroimmuno Assay (DELFIA) (Frank Loganzo and Carolyn Hardy. A sensitive, time-resolved fluorometric assay for the detection of inhibitors of phosphotyrosine kinases. American Biotechnology Laboratory, December 1998). DELFIA”, “One hundred microliter DELFIA enhancement solution (EG&G Wallac) was added and time-resolved fluorescence of the reactions determined using a VICTOR2 1420 multilable counter (EG&G Wallac).” left out

The next data set deals with T3, Lck (Homo sapiens, UniProt P06239).
T3 construct: The kinase domains from FGFR-1, VEGFR-2, Lck, and PDGF were purified from baculoviral vectors expression systems; made in house
T3 sequence (P06239 245-498 limits assumed, species assumed): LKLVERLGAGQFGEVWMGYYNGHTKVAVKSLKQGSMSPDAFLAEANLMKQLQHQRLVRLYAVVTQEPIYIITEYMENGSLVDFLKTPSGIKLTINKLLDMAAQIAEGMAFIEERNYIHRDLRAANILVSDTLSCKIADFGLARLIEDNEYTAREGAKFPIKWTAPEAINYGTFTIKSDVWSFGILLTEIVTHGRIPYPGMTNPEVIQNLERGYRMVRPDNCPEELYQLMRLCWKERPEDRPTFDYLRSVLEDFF
Nature of the data set: Kinase inhibition assay (DELFIA), Lck. Format: biochemical. The following applies: 40 μM ATP, kinase domain 20 nM. Here is the method:
as §1

Another data set addresses T4, c-Src (Homo sapiens, UniProt P12931).
T4 construct: purchased Upstate Biotechnology, Lake Placid, N.Y
As to the kind of experiment: Kinase inhibition assay (DELFIA), c-Src. Format: biochemical. To be noted: 40 μM ATP, c-Src 3 units per reaction. The method, then:
as §1

For data set [2], the system named is Human umbilical vein endothelial cells (HUVECs). As to the kind of experiment: Serum stimulated HUVEC cell proliferation (Sulphorhodamine B). To be noted: for selectivity for serum-stimulated endothelial cell proliferation: HUVEC compared to A90 and C6 tumor cell proliferation. Format: cell-based. The method, then:
(§2) Human umbilical vein endothelial cells (HUVECs) (Clonetics, Palo Alto, Calif.) were seeded at 2000 cells per well in growth medium containing 2% serum (EGM, Clonetics) and allowed to attach overnight (37° C., 5% CO2, 100% humidity). C6 rat glioma cells (ATCC) were seeded at 600 cells per well and incubated in F10 medium (GIBCO, Gaithersburg, Md.) supplemented with 15% horse serum, 2.5% fetal bovine serum, and 1 mM glutamine. A90 human ovarian cells (Dr. Kent Crickard, SUNY/AB Medical School) were seeded at 600 cells per well in RPMI1640 (GIBCO) plus 10% fetal bovine serum. Plates were incubated overnight (37° C., 5% CO2, 100% humidity) to allow the cells to attach. Test compound dilutions were added to the appropriate wells, and the incubation was continued for 4 additional days. Monolayers were fixed in 10% trichloroacetic acid (30 minutes at 4° C.), washed with distilled water, and stained with Sulphorhodamine B (0.075% in 1% acetic acid) (Sigma). Plates were washed in 1% acetic acid, and the bound dye was solubilized in 100 μL unbuffered Tris base. Absorbance was measured at 540 nm using a reference filter wavelength of 630 nm. Inhibitor potency (IC50) versus cellular proliferation was determined, and endothelial cell selectivity was assessed by comparing the inhibition of HUVEC proliferation to A90 and C6 tumor cell proliferation (Table 3).

Data set [3] can be described thus: Metabolic stability, mice liver S9 fraction. In kind it is in vitro ADME. The following applies: mouse, liver S9 fraction; mice liver S9, 5 μM, 37° C., 1.0 mM NADPH; read-out: MS9 in vitro metabolic half-life. Here is the method:
(§3) Compounds were individually incubated (5 μM in DMSO) with human and mice liver S9 fractions in 50 mM KHPO4 buffer at 37° C. in the presence of 1.0 mM NADPH and additional cofactors. At 0, 10, 20, and 40 minutes, 100 μL aliquots were removed and added to 300 μL of acetonitrile. Standard curves were prepared in a similar manner with each compound. Samples were analyzed for parent concentration by LC-MS/MS. The in vitro metabolic half-life was determined from the concentration-time plots using WinNonlin. These in vitro data represent the rate of oxidative, hydrolytic, and conjugative metabolism.

The nature of data set [4]: Metabolic stability, human liver S9 fraction. In kind it is in vitro ADME. To be noted: liver S9 fraction; human liver S9, 5 μM, 37° C., 1.0 mM NADPH; read-out: HS9 in vitro metabolic half-life. Here is the method:
as §3

The nature of a further data set: in vitro. The following applies: human, Caco-2.
The next data set concerns A90 human ovarian cells. As to the kind of experiment: A90 tumor cell proliferation (Sulphorhodamine B). Format: cell-based. To be noted: Homo sapiens, 96 h; 4 days with compound. The method, then: as §2
For another data set, the system named is C6 rat glioma cells. As to the kind of experiment: C6 tumor cell proliferation (Sulphorhodamine B). The following applies: Rattus norvegicus, Glioma cell, 96 h; 4 days with compound. In kind it is cell-based. Here is the method:
as §2

T4 sequence (P12931 whole entry): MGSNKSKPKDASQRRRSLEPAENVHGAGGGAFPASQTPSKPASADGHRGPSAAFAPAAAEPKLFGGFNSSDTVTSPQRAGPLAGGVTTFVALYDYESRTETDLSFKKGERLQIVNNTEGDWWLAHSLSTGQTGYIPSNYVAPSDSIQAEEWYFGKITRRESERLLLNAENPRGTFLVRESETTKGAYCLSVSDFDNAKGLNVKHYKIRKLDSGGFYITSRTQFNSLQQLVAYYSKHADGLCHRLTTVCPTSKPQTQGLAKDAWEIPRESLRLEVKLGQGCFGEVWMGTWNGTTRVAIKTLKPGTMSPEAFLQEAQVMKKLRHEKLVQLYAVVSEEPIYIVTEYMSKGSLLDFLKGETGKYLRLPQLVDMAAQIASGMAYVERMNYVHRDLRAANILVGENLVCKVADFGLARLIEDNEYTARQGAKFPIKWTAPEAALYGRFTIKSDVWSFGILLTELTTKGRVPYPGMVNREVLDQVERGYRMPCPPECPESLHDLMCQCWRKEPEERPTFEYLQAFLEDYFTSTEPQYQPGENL
Procedure for in vitro: as §4

`COCCc1ccc(OCC(O)CNC(C)C)cc1` (stereo not drawn) [metoprolol] gave a Papp A→B in data set [1] of about 30 ×10⁻⁶ cm/s.
As to `CCn1c(=O)c(-c2cc(OC)cc(OC)c2)cc2cnc(Nc3cc(C)nc(C)c3)nc21` [Example 10, 6-(3,5-Dimethoxy-phenyl)-2-(2,6-dimethyl-pyridin-4-ylamino)-8-ethyl-8H-pyrido[2,3-d]pyrimidin-7-one], the half-maximal inhibitory concentration (IC50) against FGFR-1 is 0.0008 µM; against VEGFR-2, 0.001 µM; at c-Src, over 4 µM. The Ki at Lck worked out at 0.74 µM. Also, the “selectivity for serum-stimulated endothelial cell proliferation” value (shortened to “selectivity”) in [2] is recorded as “selective inhibitors”.
Compound `COc1cc(OC)cc(-c2cc3cnc(Nc4ccncc4)nc3n(C)c2=O)c1` [Example 17, 6-(3,5-Dimethoxy-phenyl)-2-(pyridin-4-ylamino)-8-methyl-8H-pyrido[2,3-d]pyrimidin-7-one] gave a melting point of 245 to 247 °C.
On to `CCn1c(=O)c(-c2cc(OC)cc(OC)c2)cc2cnc(Nc3cc(OC)nc(OC)c3)nc21` [Example 12, 6-(3,5-Dimethoxy-phenyl)-2-(2,6-dimethoxy-pyridin-4-ylamino)-8-ethyl-8H-pyrido[2,3-d]pyrimidin-7-one], for which the “selectivity” value in [2] was “selective inhibitors”.
Consider `COc1cc(OC)cc(-c2cc3cnc(Nc4ccncc4)nc3n(C3CCCC3)c2=O)c1` [Example 16, 6-(3,5-Dimethoxy-phenyl)-2-(pyridin-4-ylamino)-8-cyclopentyl-8H-pyrido[2,3-d]pyrimidin-7-one], for which the melting point lay in the range of 283 to 285 °C.
On the same count and under the same terms, then `CCn1c(=O)c(-c2c(Cl)c(OC)cc(OC)c2Cl)cc2cnc(Nc3ccncc3)nc21` [Example 15, 6-(2,6-Dichloro-3,5-dimethoxy-phenyl)-2-(pyridin-4-ylamino)-8-ethyl-8H-pyrido[2,3-d]pyrimidin-7-one], with 295.5 to 297 °C.
As for `CCN(CC)CCOc1ccc(Nc2ncc3cc(-c4c(Cl)cccc4Cl)c(=O)n(C)c3n2)cc1` [Reference A], the half-life at 5 μM in [3] was 14 min; in [4], 46 min. In addition, the apical-to-basolateral permeability (Papp A→B) in “in vitro” was 37.2 ×10⁻⁶ cm/s.
As to `CCN(CC)CCOc1ccc(Nc2ncc3cc(-c4cc(OC)cc(OC)c4)c(=O)n(C)c3n2)cc1` [Reference B, reference compound], the results for the IC50 on FGFR-1, against VEGFR-2 and against c-Src were 0.002 µM, 0.004 µM and 1.34 µM, respectively. At Lck, this compound gave a Ki of 0.06 µM. Moreover, the figures for the half-life at 5 μM in data set [3] and in data set [4] were 10 min and 22 min, respectively. The Papp A→B in data set [1] was 20.1 ×10⁻⁶ cm/s.
In the case of `CCn1c(=O)c(-c2cc(OC)cc(OC)c2)cc2cnc(Nc3ccnc(C)c3)nc21` [Example 9, 6-(3,5-Dimethoxy-phenyl)-8-ethyl-2-(2-methyl-pyridin-4-ylamino)-8H-pyrido[2,3-d]pyrimidin-7-one], the melting point was over 300 °C. In addition, the “selectivity” value in data set [2] is reported as “selective inhibitors”.
With `CCn1c(=O)c(-c2cc(OC)cc(OC)c2)cc2cnc(Nc3ccnc(Cl)c3)nc21` [Example 11, 6-(3,5-Dimethoxy-phenyl)-2-(2-chloro-pyridin-4-ylamino)-8-ethyl-8H-pyrido[2,3-d]pyrimidin-7-one], the IC50 was 0.0002 µM on FGFR-1; 0.003 µM on VEGFR-2; over 4 µM at c-Src; 0.013 µM in [2] (Homo sapiens, HUVEC, 96 h, 2% serum growth medium, 4 days with compound); 25 µM in the data set on A90 human ovarian cells; 9.68 µM in the data set on C6 rat glioma cells. This compound also showed an inhibitory constant (Ki) on Lck of 2.77 µM. For the same compound, the “selectivity” value in [2] was “selective inhibitors”.
